We go through 27 compounds from ChEMBL document CHEMBL4020821, “Targeting Acidic Mammalian chitinase Is Effective in Animal Model of Asthma” (J Med Chem, 2018).

Data set [1] deals with T1, Acidic mammalian chitinase (Mus musculus, UniProt Q91XA9). The experiment in a line: Inhibition of mouse recombinant full length C-terminal His-tagged acidic mammalian chitinase expressed in CHO-K1 cells using 4-methylumbelliferyl-beta-D-N,N'-diacetylchitobioside hydrate as substrate after 60 mins by fluorescence assay.
T1 sequence (Q91XA9 whole entry): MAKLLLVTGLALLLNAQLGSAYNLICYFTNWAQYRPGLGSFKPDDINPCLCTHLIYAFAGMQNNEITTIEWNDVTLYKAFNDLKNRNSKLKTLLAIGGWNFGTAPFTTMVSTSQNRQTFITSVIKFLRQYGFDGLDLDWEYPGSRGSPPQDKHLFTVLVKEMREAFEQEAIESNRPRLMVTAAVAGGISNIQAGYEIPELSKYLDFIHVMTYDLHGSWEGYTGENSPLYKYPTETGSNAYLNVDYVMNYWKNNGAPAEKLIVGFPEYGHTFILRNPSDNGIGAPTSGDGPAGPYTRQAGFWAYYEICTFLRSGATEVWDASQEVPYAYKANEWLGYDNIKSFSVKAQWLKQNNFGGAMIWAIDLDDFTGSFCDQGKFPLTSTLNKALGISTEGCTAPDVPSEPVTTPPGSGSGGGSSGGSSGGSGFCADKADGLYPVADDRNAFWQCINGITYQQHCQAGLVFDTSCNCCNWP
Data set [2] has as its target T2, Chitotriosidase-1 (Homo sapiens, UniProt Q13231). The experiment in a line: Inhibition of human recombinant full length C-terminal His-tagged chitotriosidase expressed in CHO-K1 cells using 4-methylumbelliferyl-beta-D-N,N',N\"\"-triacetylchitotrioside as substrate after 60 mins by fluorescence assay. Format: cell-based.
For data set [3], the target named is T3, Chitotriosidase-1 (Mus musculus, UniProt Q9D7Q1). The experiment in a line: Inhibition of mouse recombinant full length C-terminal His-tagged chitotriosidase expressed in CHO-K1 cells using 4-methylumbelliferyl-beta-D-N,N',N\"\"-triacetylchitotrioside as substrate after 60 mins by fluorescence assay. Format: cell-based.
T3 sequence (Q9D7Q1 whole entry): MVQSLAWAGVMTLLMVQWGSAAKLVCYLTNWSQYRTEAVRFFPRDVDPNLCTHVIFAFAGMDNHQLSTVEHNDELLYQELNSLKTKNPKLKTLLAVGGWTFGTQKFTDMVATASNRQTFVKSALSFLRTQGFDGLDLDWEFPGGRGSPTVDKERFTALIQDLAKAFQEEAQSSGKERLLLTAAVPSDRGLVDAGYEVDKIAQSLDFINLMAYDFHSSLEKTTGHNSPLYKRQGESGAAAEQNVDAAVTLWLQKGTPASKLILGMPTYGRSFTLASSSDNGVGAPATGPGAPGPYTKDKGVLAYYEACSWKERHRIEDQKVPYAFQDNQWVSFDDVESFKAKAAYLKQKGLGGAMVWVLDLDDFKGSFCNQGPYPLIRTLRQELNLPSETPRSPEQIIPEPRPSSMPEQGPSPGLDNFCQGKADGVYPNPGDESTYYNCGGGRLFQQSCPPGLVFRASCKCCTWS
A short description of data set [4]: Half life in BALB/c mouse at 3 mg/kg, iv by LC-MS/MS analysis. Format: ADME, organism-based. Conditions: in vivo.
Data set [5] is described as follows: Clearance in BALB/c mouse at 3 mg/kg, iv by LC-MS/MS analysis. Type of data set: ADME, organism-based. Conditions: in vivo.
The nature of data set [6]: Stability in liver microsomes (unknown origin) assessed as compound remaining after 20 mins. Conditions: read-out: Stability. Format: ADME, microsome. On the technique in general: Liver microsomes are a subcellular fraction often used to study metabolism.
Data set [7] in a line: Tmax in BALB/c mouse at 10 mg/kg, po by LC-MS/MS analysis. Format: ADME, organism-based. The following applies: in vivo.
Data set [8] in a line: AUC (0 to infinity) in BALB/c mouse at 10 mg/kg, po by LC-MS/MS analysis. Type of data set: ADME, organism-based. Details: dose 10 mg/kg, route oral, time infinity. Conditions: in vivo.
The nature of data set [9]: Volume of distribution at steady state in BALB/c mouse at 3 mg/kg, iv by LC-MS/MS analysis. Type of data set: ADME, organism-based. The following applies: in vivo, read-out: Vdss.
Data set [10] in a line: Cmax in BALB/c mouse at 10 mg/kg, po by LC-MS/MS analysis. Type of data set: ADME, organism-based. Details: dose 10 mg/kg, route oral. Conditions: in vivo.
The nature of data set [11]: Oral bioavailability in BALB/c mouse at 10 mg/kg by LC-MS/MS analysis. Format: ADME, organism-based. The following applies: in vivo.
A short description of data set [12]: AUC (0 to infinity) in BALB/c mouse at 3 mg/kg, iv by LC-MS/MS analysis. The following applies: in vivo. Type of data set: ADME, organism-based. On the set-up: dose 3 mg/kg, route intravenous, time infinity.
Data set [13] relates to Salmonella typhimurium. The experiment in a line: Genotoxicity in Salmonella typhimurium by Ames test. Format: toxicity. The following applies: salmonella enterica subsp. enterica serovar typhimurium. (In the Ames test, an excess of revertant colonies over the control signals mutagenicity.)
In data set [14] the target is T2, Chitotriosidase-1. The experiment in a line: Inhibition of human recombinant full length C-terminal His-tagged chitotriosidase expressed in CHO-K1 cells using 4-methylumbelliferyl-beta-D-N,N',N\"\"-triacetylchitotrioside as substrate after 60 mins by Lineweaver-Burk plot analysis. Format: cell-based.
In data set [15] the target is T3, Chitotriosidase-1. Put plainly: Inhibition of mouse recombinant full length C-terminal His-tagged chitotriosidase expressed in CHO-K1 cells using 4-methylumbelliferyl-beta-D-N,N',N\"\"-triacetylchitotrioside as substrate after 60 mins by Lineweaver-Burk plot analysis. Format: cell-based.
Data set [16] addresses T1, Acidic mammalian chitinase. The experiment in a line: Inhibition of mouse recombinant full length C-terminal His-tagged acidic mammalian chitinase expressed in CHO-K1 cells using 4-methylumbelliferyl-beta-D-N,N'-diacetylchitobioside hydrate as substrate after 60 mins by Lineweaver-Burk plot analysis.

What is called IC50 is the concentration needed to halve the response being measured. One may read the half-life as the time in which the quantity being followed falls by half. Low readings indicate fast loss, high ones slow loss. One may read the clearance as the rate of elimination divided by the concentration. A high value points to efficient removal. A word on the Tmax: it is the time at which the peak concentration occurs. As usually defined, the AUC(0-inf) is total exposure, with the tail of the curve extrapolated. Higher therefore signals high exposure. For orientation: Cmax means the highest concentration seen after dosing. As usually defined, the bioavailability is dose-corrected exposure relative to a reference, in per cent. A low value points to poor availability. One may read the Ki as a dissociation constant, usually derived from enzyme kinetics or from competition with a known ligand.

T2 sequence (Q13231 whole entry): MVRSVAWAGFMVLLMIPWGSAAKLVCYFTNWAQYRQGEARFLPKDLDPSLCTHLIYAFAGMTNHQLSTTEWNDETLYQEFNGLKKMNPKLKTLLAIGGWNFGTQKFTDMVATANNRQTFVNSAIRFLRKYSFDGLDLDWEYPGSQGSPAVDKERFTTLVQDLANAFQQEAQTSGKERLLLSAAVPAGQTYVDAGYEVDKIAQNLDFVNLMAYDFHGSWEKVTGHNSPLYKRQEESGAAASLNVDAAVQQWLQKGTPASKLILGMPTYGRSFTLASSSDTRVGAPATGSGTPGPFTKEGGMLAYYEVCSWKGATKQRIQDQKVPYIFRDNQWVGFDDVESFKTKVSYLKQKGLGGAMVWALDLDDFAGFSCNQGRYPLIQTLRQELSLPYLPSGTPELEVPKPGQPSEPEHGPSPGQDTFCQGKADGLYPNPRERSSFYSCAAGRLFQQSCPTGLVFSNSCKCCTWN

`Nc1n[nH]c(N2CCN(CCOc3ccc(Br)cc3)CC2)n1`: the IC50 in data set [1] is 2100 nM; in [2], 6760 nM; in data set [3], 19800 nM.

Regarding `Nc1n[nH]c(N2CCC(NC(=O)Nc3ccc(Br)cc3)CC2)n1`, the IC50 in data set [2] and in data set [3] was above 100000 nM throughout.

Take `CN(CCc1ccccc1)C1CCN(c2nc(N)n[nH]2)CC1`: the IC50 in data set [2] and in data set [3] was above 100000 nM in each case.

For the compound `CN(CCc1ccc(Cl)cc1)C1CCN(c2nc(N)n[nH]2)CC1`, the IC50 in data set [2] was found to be 389 nM; in [3] it was 7470 nM.

With `CN(CCc1ccc(C(C)(C)C)cc1)C1CCN(c2nc(N)n[nH]2)CC1`, the IC50 was 4160 nM in data set [2] and above 100000 nM in [3].

As for `Nc1n[nH]c(N2CCC(NS(=O)(=O)Cc3ccc(Br)cc3)CC2)n1`, the half-life in data set [4] is 11.1 h. Besides, the clearance in data set [5] is 11.5 mL/min/kg. The remaining at 20 min in data set [6] was 100%. The Tmax in data set [7] worked out at 1 h. In addition, the IC50 in [2] and in data set [3] was above 100000 nM in each case. Moreover, the values for the AUC(0-inf) in [8] and in [12] were 8210 ng·h/mL and 4340 ng·h/mL, respectively. In [9], the Vd amounted to 1.16 L/kg. This compound registered a Cmax in data set [10] of 3250 ng/mL. In data set [11], the bioavailability was determined as 57%.

`CC(C)CN(CCc1ccc(Br)cc1)C1CCN(c2nc(N)n[nH]2)CC1` had a half-life in [4] of 3.25 h. Besides, the clearance in data set [5] amounted to 8.53 mL/min/kg. The remaining at 20 min in [6] turned out to be 78.3%. Also, the Tmax in [7] was 0.5 h. In addition, the IC50 in data set [2] worked out at 123 nM; in data set [3], 1270 nM. Besides, the values for the AUC(0-inf) in data set [8] and in data set [12] were 27900 ng·h/mL and 5860 ng·h/mL, respectively. Moreover, the Vd in data set [9] turned out to be 1.66 L/kg. For the same compound, the Cmax in [10] is 6040 ng/mL. Also, the bioavailability in data set [11] amounted to 100%.

Take `CC(C)c1ccc(CCN(C)C2CCN(c3nc(N)n[nH]3)CC2)cc1`: the half-inhibitory concentration (IC50) in data set [2] worked out at 1170 nM; in [3], 6960 nM.

`Nc1n[nH]c(N2CCC(C(=O)NCc3ccc(Br)cc3)CC2)n1`: the IC50 in data set [2] and in [3] was above 100000 nM throughout.

With `CCN(CCc1ccc(Cl)cc1)C1CCN(c2nc(N)n[nH]2)CC1`, the IC50 in data set [2] turned out to be 385 nM; in [3] it was 7080 nM.

With `CC(C)N(CCc1ccc(Cl)cc1)C1CCN(c2nc(N)n[nH]2)CC1`, the 50% inhibitory concentration (IC50) came to 945 nM in [2] and 15600 nM in data set [3].

`CC(C)CN(CCc1ccc(Cl)cc1)C1CCN(c2nc(N)n[nH]2)CC1`: in data set [13], the Activity entry was “Non-Toxic”. In data set [4], this compound gave a half-life of 2.97 h. For the same compound, the clearance in data set [5] came out at 9.06 mL/min/kg. The remaining at 20 min in data set [6] is 76.9%. Further, the Tmax in data set [7] amounted to 0.25 h. The results for the Ki in data set [14], in data set [15] and in [16] were 312 nM, 3400 nM and 10.5 nM, respectively. The IC50 in data set [1] amounted to 18.8 nM; in [2], 232 nM; in data set [3], 2960 nM. Also, the AUC(0-inf) was 9560 ng·h/mL in data set [8] and 5520 ng·h/mL in [12]. Moreover, in data set [9], the Vd came to 2.33 L/kg. The same compound came in with a peak concentration (Cmax) in data set [10] of 1860 ng/mL. Also, in data set [11], the bioavailability was determined as 52%.

Turning to `Nc1n[nH]c(N2CCC(N(CCc3ccc(Cl)cc3)Cc3ccccc3)CC2)n1`, the IC50 was 11.2 nM in data set [1], 163 nM in [2] and 1510 nM in [3].

On to `Nc1n[nH]c(N2CCC(N(CCc3ccc(Cl)cc3)Cc3ccccc3Cl)CC2)n1`, for which the half-life in [4] is 6.78 h. Also, the clearance in [5] came out at 45 mL/min/kg. Also, the remaining at 20 min in data set [6] amounted to 21%. The time to peak (Tmax) in data set [7] turned out to be 1 h. In addition, the concentration for half-maximal inhibition (IC50) in [1] worked out at 9.7 nM; in [2], 149 nM; in data set [3], 2580 nM. In addition, the area under the curve AUC(0-inf) in data set [8] was found to be 1750 ng·h/mL; in data set [12] it was 1110 ng·h/mL. For the same compound, in [9], the Vd amounted to 3.03 L/kg. Also, the Cmax in [10] turned out to be 618 ng/mL. The compound further came in with a bioavailability in data set [11] of 47%.

On to `CN(Cc1ccc(Br)cc1)CC1CCN(c2nc(N)n[nH]2)CC1`, for which the IC50 in [2] and in [3] was above 100000 nM in each case.

For the compound `Cc1ccc(CCN(C)C2CCN(c3nc(N)n[nH]3)CC2)cc1`, the figures for the IC50 in data set [2] and in data set [3] were 1520 nM and 12600 nM, respectively.

With `Nc1n[nH]c(N2CCC(N(CCc3ccc(Cl)cc3)CC3CCCCC3)CC2)n1`, the IC50 in data set [2] came out at 123 nM; in [3], 2030 nM.

In the case of `CN(CCc1ccc(Cl)cc1Cl)C1CCN(c2nc(N)n[nH]2)CC1`, the half-maximal inhibitory concentration (IC50) came out at 2260 nM in data set [2] and 47600 nM in data set [3].

As for `Nc1n[nH]c(N2CCC(N(CCc3ccc(Cl)cc3)Cc3cccc4ccccc34)CC2)n1`, the IC50 in [2] stood at 36 nM; in data set [3], 573 nM.

For `CN(CCc1ccc(Br)cc1)C1CCN(c2nc(N)n[nH]2)CC1`, in [4], the half-life is 4.4 h. Also, the clearance in [5] was found to be 52.6 mL/min/kg. In addition, the remaining at 20 min in data set [6] stood at 97.5%. In addition, the Tmax in [7] was determined as 2 h. In addition, the IC50 in data set [2] is 175 nM; in data set [3], 2700 nM. The AUC(0-inf) in [8] amounted to 3340 ng·h/mL; in data set [12], 950 ng·h/mL. Also, the Vd in [9] amounted to 12.8 L/kg. Besides, the Cmax in data set [10] was 672 ng/mL. This compound gave a bioavailability in data set [11] of 99%.

In the case of `Nc1n[nH]c(N2CCC(NC(=O)Cc3ccc(Br)cc3)CC2)n1`, the IC50 in [2] and in [3] was above 100000 nM throughout.

In the case of `CN(CCc1ccc(C2CC2)cc1)C1CCN(c2nc(N)n[nH]2)CC1`, the figures for the IC50 in data set [2] and in [3] were 765 nM and 3070 nM, respectively.

As for `CN(C1CCN(c2nc(N)n[nH]2)CC1)S(=O)(=O)Cc1ccc(Br)cc1`, the IC50 in data set [2] and in [3] was above 100000 nM throughout.

With `Nc1n[nH]c(N2CCN(C(=O)COc3ccc(Br)cc3)CC2)n1`, the half-maximal inhibitory concentration (IC50) in [2] and in data set [3] was above 100000 nM each time.

Consider `CCN(CCc1ccc(Br)cc1)C1CCN(c2nc(N)n[nH]2)CC1`, for which the results for the IC50 in [2] and in data set [3] were 105 nM and 2720 nM, respectively.

For the compound `Nc1n[nH]c(N2CCC(CNC(=O)c3ccc(Br)cc3)CC2)n1`, the IC50 is 23100 nM in data set [2] and above 100000 nM in data set [3].

As for `CCc1ccc(CCN(C)C2CCN(c3nc(N)n[nH]3)CC2)cc1`, the IC50 in [3] was found to be 7120 nM.
